{"source": "patent US20040138230A1", "about": "“Heterocyclic substituted piperazines for the treatment of schizophrenia” (priority 2002, published 2004)", "key": {"[1]": {"target": "serotonin 2A (5HT2A) receptor (Homo sapiens, UniProt P28223)", "sequence (P28223 whole entry)": "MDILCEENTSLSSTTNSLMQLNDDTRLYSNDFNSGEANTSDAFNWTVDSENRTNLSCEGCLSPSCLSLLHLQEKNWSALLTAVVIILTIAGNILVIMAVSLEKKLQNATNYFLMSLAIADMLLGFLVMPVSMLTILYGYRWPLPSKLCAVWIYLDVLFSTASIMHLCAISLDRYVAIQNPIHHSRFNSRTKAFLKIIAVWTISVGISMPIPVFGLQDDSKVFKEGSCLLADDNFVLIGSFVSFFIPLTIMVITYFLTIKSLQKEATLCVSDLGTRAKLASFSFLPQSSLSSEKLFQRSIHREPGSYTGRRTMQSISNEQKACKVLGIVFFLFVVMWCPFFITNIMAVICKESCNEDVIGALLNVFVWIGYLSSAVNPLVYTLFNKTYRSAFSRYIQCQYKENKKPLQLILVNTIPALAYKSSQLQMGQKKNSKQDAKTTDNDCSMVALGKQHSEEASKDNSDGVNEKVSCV", "from_the_text": "The ability of the novel compounds of this invention to bind to the dopamine D2 and serotonin 2A (5HT2A) receptors can be determined using conventional radioligand receptor binding assays. All receptors can be heterologously expressed in cell lines and experiments conducted in membrane preparations from the cell lines using procedures outlined below. IC50 concentrations can be determined by nonlinear regression of concentration-dependent reduction in specific binding. The Cheng-Prussoff equation can be used to convert the IC50 to Ki concentrations.\n[^3H]Ketanserin binding to Swiss-h5HT2A cell membranes can be carried out in 250 μl of 50 mM Tris-HCl buffer pH 7.4. Duplicate samples containing (in order of addition) test compounds, 1.0 nM [^3H]ketanserin, and approximately 75 μg protein are incubated for 120 minutes at room temperature. Bound radioligand is separated by rapid filtration under reduced pressure through Whatman GF/B glass fiber filters previously treated with 0.3% polyethyleneimine. Radioactivity retained on the filter is determined by liquid scintillation spectrophotometry."}, "dopamine D2 receptor": {"target": "dopamine D2 receptor (Homo sapiens, UniProt P14416)", "sequence (P14416 whole entry)": "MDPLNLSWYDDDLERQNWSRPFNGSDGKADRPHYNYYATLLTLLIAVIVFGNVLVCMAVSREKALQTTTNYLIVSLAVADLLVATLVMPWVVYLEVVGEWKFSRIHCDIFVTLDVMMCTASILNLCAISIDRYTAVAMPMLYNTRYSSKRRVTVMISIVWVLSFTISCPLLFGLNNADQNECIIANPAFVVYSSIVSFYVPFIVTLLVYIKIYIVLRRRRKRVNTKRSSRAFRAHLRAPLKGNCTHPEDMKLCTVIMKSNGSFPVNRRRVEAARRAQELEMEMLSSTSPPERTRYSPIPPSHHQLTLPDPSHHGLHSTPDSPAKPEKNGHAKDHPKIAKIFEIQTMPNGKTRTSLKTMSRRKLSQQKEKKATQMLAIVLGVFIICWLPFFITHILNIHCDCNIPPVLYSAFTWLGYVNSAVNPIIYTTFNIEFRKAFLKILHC"}}}
{"compound": "CC1Cc2cc(CCCN3CCN(c4nsc5ccccc45)CC3)ccc2NC1=O", "note": "(stereo not shown) [Example 59, 6-[3-(4-BENZO[D]ISOTHIAZOL-3-YL-PIPERAZIN-1-YL)-PROPYL]-3-METHYL-3,4-DIHYDRO-1H-QUINOLIN-2-ONE]", "values": [{"measurement": "melting point", "result": 212, "unit": "°C"}]}
{"compound": "CC1Cc2cc(CCCN3CCN(c4noc5ccccc45)CC3)ccc2NC1=O", "note": "(stereo not shown) [Example 60, 6-[3-(4-BENZO[D]ISOXAZOL-3-YL-PIPERAZIN-1-YL)-PROPYL]-3-METHYL-3,4-DIHYDRO-1H-QUINOLIN-2-ONE]", "values": [{"measurement": "melting point", "result": "185 to 187", "unit": "°C"}]}
{"compound": "COc1cccc2c(N3CCN(CCc4cc(C)c5c(c4)C(C)(C)CC(=O)N5)CC3)nsc12", "note": "[Example 31, 6-{2-[4-(7-METHOXY-BENZO[D]ISOTHIAZOL-3-YL)-PIPERAZIN-1-YL]-ETHYL}-4,4,8-TRIMETHYL-3,4-DIHYDRO-1H-QUINOLIN-2-ONE]", "values": [{"measurement": "Ki", "setting": "[1]", "result": 2, "unit": "nM"}, {"measurement": "Ki", "setting": "dopamine D2 receptor", "result": 1, "unit": "nM"}]}
{"compound": "Cc1c(Cl)c(CCN2CCN(c3nsc4ccccc34)CC2)cc2c1NC(=O)CC2(C)C", "note": "[Example 23, 6-[2-(4-BENZO[D]ISOTHIAZOL-3-YL-PIPERAZIN-1-YL)-ETHYL]-7-CHLORO-4,4,8-TRIMETHYL-3,4-DIHYDRO-1H-QUINOLIN-2-ONE METHANESULFONATE]", "values": [{"measurement": "Ki", "setting": "[1]", "result": 1, "unit": "nM"}, {"measurement": "Ki", "setting": "dopamine D2 receptor", "result": 0.9, "unit": "nM"}]}
{"compound": "CN1Cc2c(c3cc(CCN4CCN(c5nsc6ccccc56)CC4)ccc3[nH]c2=O)C1", "note": "[Example 173, 8-[2-(4-BENZO[D]ISOTHIAZOL-3-YL-PIPERAZIN-1-YL)-ETHYL]-2-METHYL-1,2,3,5-TETRAHYDRO-PYRROLO[3,4-C]QUINOLIN-4-ONE]", "values": [{"measurement": "melting point", "result": "205 to 207", "unit": "°C"}]}
{"compound": "CC1(C)Cc2cc(CCN3CCN(c4noc5ccccc45)CC3)ccc2NC1=O", "note": "[Example 8, 6-[2-(4-BENZO[D]ISOXAZOL-3-YL-PIPERAZIN-1-YL)-ETHYL]-3,3-DIMETHYL-3,4-DIHYDRO-1H-QUINOLIN-2-ONE]", "values": [{"measurement": "Ki", "setting": "[1]", "result": 5, "unit": "nM"}, {"measurement": "Ki", "setting": "dopamine D2 receptor", "result": 7, "unit": "nM"}]}
{"compound": "CN1Cc2c(c3cc(CCCN4CCN(c5nsc6ccccc56)CC4)ccc3[nH]c2=O)C1", "note": "[Example 172, 8-[3-(4-BENZO[D]ISOTHIAZOL-3-YL-PIPERAZIN-1-YL)-PROPYL]-2-METHYL-1,2,3,5-TETRAHYDRO-PYRROLO[3,4-C]QUINOLIN-4-ONE]", "values": [{"measurement": "melting point", "result": "206 to 208", "unit": "°C"}]}
